Assay results published in PubChem BioAssay AID330 (DTP/NCI, 2004).
Values joined by “and” are separate entries in the source; they are usually repeats but may differ in a detail not shown here. Identical values can stand only once. Inconclusive results and toxic doses are left out.

Tested on: P388 leukemia ip, CD2F1 mice, survival T/C
Test: NCI In Vivo Anticancer Drug Screen. Data for tumor model P388 Leukemia (intraperitoneal) in CD2F1 (CDF1) mice
Details: endpoint: median survival time, higher = longer survival
Outline: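 Mice carrying the transplanted tumor received test compound or vehicle. Survival was recorded in each group, and the value is the treated-group measurement divided by that of the vehicle-treated control group.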

[1] = dose: 100.0 mg/kg/injection, schedule: Q01DX009 (ip), vehicle: saline
[2] = dose: 200.0 mg/kg/injection, schedule: Q01DX009 (ip), vehicle: saline
[3] = dose: 25.0 mg/kg/injection, schedule: Q01DX009 (ip), vehicle: saline with Tween-80
[4] = dose: 50.0 mg/kg/injection, schedule: Q01DX009 (ip), vehicle: saline with Tween-80
[5] = dose: 100.0 mg/kg/injection, schedule: Q01DX009 (ip), vehicle: saline with Tween-80

## CN(C)CC#CC1(O)c2ccccc2CCc2ccccc21
dose: 50.0 mg/kg/injection, schedule: Q01DX009 (ip), vehicle: saline
  T/C: 91 % of control
[1]
  T/C: 91 % of control
[2]
  T/C: 91 % of control

## CC(CNc1nc(Nc2ccc(Cl)c(Cl)c2)nc(C(Cl)(Cl)Cl)n1)N(C)C (configuration not stated)
dose: 3.13 mg/kg/injection, schedule: Q01DX009 (ip), vehicle: distilled water + Tween-80
  T/C: 109 % of control
dose: 3.13 mg/kg/injection, schedule: Q01DX009 (ip), vehicle: water
  T/C: 90 % of control
dose: 6.25 mg/kg/injection, schedule: Q01DX009 (ip), vehicle: distilled water + Tween-80
  T/C: 118 % of control
dose: 6.25 mg/kg/injection, schedule: Q01DX009 (ip), vehicle: water
  T/C: 99 % of control
dose: 12.5 mg/kg/injection, schedule: Q01DX009 (ip), vehicle: distilled water + Tween-80
  T/C: 98 % of control and 120 % of control
dose: 12.5 mg/kg/injection, schedule: Q01DX009 (ip), vehicle: water
  T/C: 99 % of control
dose: 25.0 mg/kg/injection, schedule: Q01DX009 (ip), vehicle: distilled water + Tween-80
  T/C: 113 % of control and 94 % of control
dose: 25.0 mg/kg/injection, schedule: Q01DX009 (ip), vehicle: water
  T/C: 101 % of control
dose: 50.0 mg/kg/injection, schedule: Q01DX009 (ip), vehicle: distilled water + Tween-80
  T/C: 109 % of control and 94 % of control
dose: 50.0 mg/kg/injection, schedule: Q01DX009 (ip), vehicle: water
  T/C: 101 % of control

## O=C(CCC1(CCC(=O)c2ccccc2)c2ccccc2C(=O)c2ccccc21)c1ccccc1
dose: 25.0 mg/kg/injection, schedule: Q04DX003 (ip), vehicle: Klucel (hydroxypropylcellulose) (HPC)
  T/C: 93 % of control
dose: 50.0 mg/kg/injection, schedule: Q04DX003 (ip), vehicle: Klucel (hydroxypropylcellulose) (HPC)
  T/C: 108 % of control
dose: 100.0 mg/kg/injection, schedule: Q04DX003 (ip), vehicle: Klucel (hydroxypropylcellulose) (HPC)
  T/C: 86 % of control
dose: 200.0 mg/kg/injection, schedule: Q04DX003 (ip), vehicle: Klucel (hydroxypropylcellulose) (HPC)
  T/C: 91 % of control

## CNC(=S)N/N=C(C)/C=C/c1ccc(OC)cc1
dose: 100.0 mg/kg/injection, schedule: Q04DX002 (ip), vehicle: Klucel (hydroxypropylcellulose) (HPC)
  T/C: 104 % of control
dose: 200.0 mg/kg/injection, schedule: Q04DX002 (ip), vehicle: Klucel (hydroxypropylcellulose) (HPC)
  T/C: 100 % of control
dose: 400.0 mg/kg/injection, schedule: Q04DX002 (ip), vehicle: Klucel (hydroxypropylcellulose) (HPC)
  T/C: 91 % of control

## CC(=O)Nc1ccc(/C=N/Nc2ccc([N+](=O)[O-])cn2)cc1
[1]
  T/C: 86 % of control
[2]
  T/C: 90 % of control
dose: 400.0 mg/kg/injection, schedule: Q01DX009 (ip), vehicle: saline
  T/C: 90 % of control

## O=[Se]([O][Sn]([O][Se](=O)c1ccccc1)([O][Se](=O)c1ccccc1)[O][Se](=O)c1ccccc1)c1ccccc1 (configuration not stated)
dose: 12.5 mg/kg/injection, schedule: Q01DX009 (ip), vehicle: saline with Tween-80
  T/C: 98 % of control
[3]
  T/C: 103 % of control
[4]
  T/C: 110 % of control and 118 % of control

## CC1(C)OC2(C=CC(C)([N+](=O)[O-])C=C2)OC1=O (configuration not stated)
dose: 50.0 mg/kg/injection, schedule: Q01DX005 (ip), vehicle: Klucel (hydroxypropylcellulose) (HPC)
  T/C: 101 % of control
dose: 100.0 mg/kg/injection, schedule: Q01DX005 (ip), vehicle: Klucel (hydroxypropylcellulose) (HPC)
  T/C: 94 % of control
dose: 200.0 mg/kg/injection, schedule: Q01DX005 (ip), vehicle: Klucel (hydroxypropylcellulose) (HPC)
  T/C: 100 % of control

## CCCCCCCC(C)c1cc(N)c(C)cc1[N+](=O)[O-] (configuration not stated)
dose: 25.0 mg/kg/injection, schedule: Q04DX002 (ip), vehicle: Klucel (hydroxypropylcellulose) (HPC)
  T/C: 98 % of control
dose: 50.0 mg/kg/injection, schedule: Q04DX002 (ip), vehicle: Klucel (hydroxypropylcellulose) (HPC)
  T/C: 89 % of control

## CCC(C)(C)C(=O)Nc1cccc(OC(=O)NC)c1
[3]
  T/C: 100 % of control
[4]
  T/C: 92 % of control
[5]
  T/C: 101 % of control

## CCCC/C=C/[Se]c1ccccc1
[3]
  T/C: 101 % of control
[4]
  T/C: 151 % of control
[5]
  T/C: 109 % of control

## COc1cc(/C=C2/CCC/C(=C\c3ccc(OCC(O)COc4ccc(C(C)(C)c5ccc(OCC6CO6)cc5)cc4)c(OC)c3)C2=O)ccc1OCC(O)COc1ccc(C(C)(C)c2ccc(OCC3CO3)cc2)cc1 (configuration not stated)
dose: 50.0 mg/kg/injection, schedule: Q01DX009 (ip), vehicle: Klucel (hydroxypropylcellulose) (HPC)
  T/C: 96 % of control
dose: 100.0 mg/kg/injection, schedule: Q01DX009 (ip), vehicle: Klucel (hydroxypropylcellulose) (HPC)
  T/C: 97 % of control
dose: 200.0 mg/kg/injection, schedule: Q01DX009 (ip), vehicle: Klucel (hydroxypropylcellulose) (HPC)
  T/C: 95 % of control

## COc1ccc2c(c1)C(Cc1ccc(Oc3cc(CC4c5cc(OC)ccc5CC[N+]4(C)C)ccc3OC)cc1)[N+](C)(C)CC2 (configuration not stated)
dose: 1.56 mg/kg/injection, schedule: Q04DX003 (ip), vehicle: water
  T/C: 106 % of control
dose: 3.13 mg/kg/injection, schedule: Q04DX003 (ip), vehicle: water
  T/C: 102 % of control
